Nine compounds from US3963758A, “2-(Benzofuroyl)phenyl acetic acids” (Serdex - Societe d'Etudes, de Recherches, de Diffusion et …, priority 1973, dated 1976) can be followed below.

Series [1] deals with phenylbenzoquinone-induced writhing movements. The series can be described thus: Analgesic activity, Siegmund Test (phenylbenzoquinone writhing). Type of series: in vivo. Particulars: mice; for Siegmund ED50 / ED50: test material 1 hour before phenylbenzoquinone i.p.; for ED50: Mus musculus, ip. Here is the method: Siegmund Test (Proc. Soc. Exp. Biol. Med., 1957, 95, 729-31)
Intraperitoneal injection of 0.25 ml of an aqueous-alcoholic 2-phenyl-1,4-benzoquinone solution at a concentration of 0.02% induces in mice a specific syndrome characterized by the stretching of the hind paws and writhing movements of the trunk.
The tests are carried out with homogeneous lots of 20-30 mice having an average weight of 20 g.
The animals are administered the test material at time zero. One hour later, phenylbenzoquinone is administered by the intraperitoneal route. The animals are individually kept under observation during 5 minutes, between the fifth and the tenth minute after phenylbenzoquinone injection.
The present activity of the test material is evaluated by comparing the number of writhing movements of the treated animals with respect to the reference animals.
Background: Writhing tests count abdominal constrictions after an irritant is injected.

The test system of series [2] is Turfyl nicotinate (Trafuril)-induced erythema. The series can be described thus: Turfyl nicotinate (Trafuril)-induced erythema. Type of series: in vivo. As to conditions: oral, male albino guinea-pigs; for Trafuril ED50 / ED50: 1 hour prior to test; for ED50: Cavia porcellus. The protocol:
2 - Turfyl nicotinate (Trafuril) -induced erythema
A slight modification of the HAINING method (Br. Jl. Pharmacol., 1963, 21, 104-12) is used:
The test is carried out with homogeneous lots of 6-12 male albino guinea-pigs weighing 300-400 g, after careful depilation of the skin of their backs on the previous day.
On the day of the test, a disk for antibiotic sensitivity determination impregnated with a 5% alcoholic Turfyl nicotinate solution is applied during one minute on the lumbar area.
The effect produced is recorded after five minutes.
The results are rated according to an "all or nothing" scale, according to whether or not an erythema appears at the locus of application of the disk.
The treatment is administered orally one hour prior to the test, under an uniform volume of 1 ml/kg body weight; the test materials are homogeneously suspended with 3% gum arabic.
The reference animals are administered an equal volume of carrier.
The percent erythema obtained in the treated animals is compared with that obtained in the simultaneously tested reference lot.

The test system of series [3] is carrageenin-induced edema. The series can be described thus: Acute carrageenin-induced edema. Type of series: in vivo. Particulars: oral, male rats; for Carrageenin-induced edema ED50 / ED50: 1 hour prior to carrageenin, edema at 3 hours; for Carrageenin-induced edema ED50: 180 min; for ED50: Rattus norvegicus; for Carrageenin-induced edema percent protection: 3 hours. Here is the method: c. Anti-inflammatory activity
1- Acute carrageenin-induced edema (Winster C. A., Risley E. A., Nuss G.W., Proc. Soc. Biol. Med., 1962, 3, 544-7)
Subplantar injection in the paw of rats of 0.05 ml of an aqueous gel containing 1% carrageenin induces a local edema which may be measured by means of an electric mercury plethysmometer.
Determination of the volume of the forepaw prior, and three hours after the carrageenin injection, makes it possible to calculate the percent inflammation.
The treatment is administered orally, one hour prior to carrageenin administration.
The tests are conducted only with homogeneous lots of 10 male rats weighing 180 g ± 10 g.
The resulting edema is evaluated for each animal by means of the ratio: [formula] in which:
Vo of the paw at time 3 hrs Vo = volume of the paw at time zero
The protection noted under the effect of the test material may be evaluated by comparing the percent edema determined in the treated lot with respect to the reference lot.

Series [4] deals with Bradykinine-induced bronchoconstriction. The series is described as follows: Anti-bradykinine activity (Konzett and Rossler technique). Type of series: in vivo, guinea-pig. As to conditions: I.V., dosage of 100 γ/kg; bradykinine 20 γ/kg I.V. From the text:
c. Anti-bradykinine activity
The antagonistic action of the compound described in Example 1 was studied with respect to a Bradykinine-induced bronchoconstriction in guinea-pig (20 γ/kg I.V.).
The technique used was the conventional technique described by KONZETT and ROSSLER (Arch. Exp. Path. Pharmakol., 195, 71-74) and later by HARICHAUX (C.R. Soc. Biol., 158, 12, 2437-2441).

The nature of series [5]: Acute toxicity, oral, rats. As to conditions: rat, in vivo, fasting rats, 14 days observation. Here is the method:
(§1) Acute toxicity is determined by oral administration of the test material in fasting mice and rats.
(§2) The compound of Example 1 is homogeneously suspended in a carrier comprising a 3% gum arabic solution.
(§3) The animals are kept under observation during 14 days after the treatment.

The subject of series [6] is adjuvant arthritis (Mycobacterium butyricum). The series can be described thus: Adjuvant arthritis. Type of series: in vivo. As to conditions: at 20 mg/kg; oral, daily, 14th to 28th day; male rats. Here is the method:
According to the works by PEARSON C. M. (J. Chronic. Dis., 1963, 16, 863-74), JONES R. D. and WARD J. R. (Recent progress in hormone research, vol. XIX, 1963, Ac. Press), WARD T. R., JONES R. S. (Arthritis and Rheumatism, 1962, 5, 557-64).
The tests are carried out in male rats weighing 151 g ± 20 g. On day 0, the animals are given intradermally, at the base of the tail, an 0.05 ml injection of a suspension of Mycobacterium butyricum in paraffin oil (12 mg killed microbial bodies/ml). The animals are selected on the 14th day and are distributed into homogeneous lots of 15 animals.
The treatment is administered orally, daily, from the 14th to the 28th day.
The chronic arthritis is evaluated according to two criteria:
Arthritis index, by separate scoring of the injuries (erythema, edema, distortions) of each of the four limbs (according to a scoring scale from 0 to 3; maximum score: 12) in each animal on the 14th day, the 18th day, the 21st day, the 24th day and the 28th day (the scoring is effected blind, by two different experimenters).
Sedimentation rate according to KOWARSKI (pipette held at an angle of 45°; recording time: 30 minutes).
The blood sample is taken by the retro-orbicular route. The determination is effected on the 14th, the 21st and the 28th day. […]

Series [7] in a line: Acute toxicity, oral, mice. Particulars: mouse, in vivo, fasting mice, 14 days observation. Here is the method:
as §1, §2, §3

As to `CC(C(=O)O)c1cccc(C(=O)c2cc3ccccc3o2)c1` (stereo not drawn) [Example 10, l-2-[3-(2-Benzofuroyl)-phenyl]propionic acid], in series [1], the “Siegmund ED50” value is < 6 mg/kg. Moreover, the “Trafuril ED50” value in series [2] came to 8 mg/kg. Moreover, the “Carrageenin-induced edema ED50” value in series [3] is on record as ~11.5 mg/kg.

With `CC(C(=O)O)c1cccc(C(=O)c2cc3ccccc3o2)c1` (racemic) [Example 1, 2-[3-(2-benzofuroyl)-phenyl]-propionic acid], the figures for the ED50 in series [1], in series [2] and in series [3] were 0.72 mg/kg, 3.6 mg/kg and 9 mg/kg, respectively. Further, the “Inhibition of bradykinine-induced bronchospasm” value in series [4] is recorded as “inhibited”. Further, the results for the median lethal dose (LD50) at 336 h in series [5] and in series [7] were 1300 mg/kg and 2500 mg/kg, respectively. Further, the “Activity in adjuvant arthritis” value in series [6] is “active”.

For `COc1ccc2oc(C(=O)c3cccc(C(C)C(=O)O)c3)cc2c1` (stereo not shown) [Example 7], the values for the ED50 in series [1] and in series [3] were < 60 mg/kg and < 20 mg/kg, respectively.

For the compound `COc1ccc(C(C)C(=O)O)cc1C(=O)c1cc2ccccc2o1` (stereo not shown) [Example 6, 2-[3-(2-benzofuroyl)-4-methoxy-phenyl]propionic acid], the median effective dose (ED50) (commonly the midpoint of the dose-response relation) was ~15 mg/kg in series [1] and > 20 mg/kg in series [3].

As to `O=C(O)Cc1cccc(C(=O)c2cc3ccccc3o2)c1` [Example 3, [3-(2-Benzofuroyl)-phenyl]acetic acid], the Siegmund percent protection was 32% in series [1] (10 mg) and 50% in series [1] (50 mg). This compound also yielded a Trafuril percent protection in series [2] (100 mg) of 17%. Also, the “Carrageenin-induced edema percent protection” value in series [3] (100 mg) came to 10%.

As to `O=C(O)Cc1ccc(C(=O)c2cc3ccccc3o2)cc1` [Example 2, [4-(2-benzofuroyl)-phenyl]acetic acid], the Siegmund percent protection in series [1] (50 mg) was 28%. Further, in series [3] (50 mg), the “Carrageenin-induced edema percent protection” value came out at 15%.

As to `CC(C(=O)O)c1ccc(C(=O)c2cc3ccccc3o2)cc1` (stereo not shown) [Example 4, 2-[4-(2-Benzofuroyl)-phenyl]propionic acid], the ED50 was found to be 5 mg/kg in series [1], 115 mg/kg in series [2] and 170 mg/kg in series [3].

Take `Cc1c(C(=O)c2ccc(CC(=O)O)cc2)oc2ccccc12` [Example 5, 4-[2-(3-Methyl-benzofuroyl)]-phenyl acetic acid]: the Siegmund percent protection in series [1] (50 mg) was found to be 14%. Moreover, the “Carrageenin-induced edema percent protection” value in series [3] (100 mg) is 15%.

`CC(C(=O)O)c1cccc(C(=O)c2cc3ccccc3o2)c1` (stereo not drawn) [Example 9, d-2-[3-(2-Benzofuroyl)-phenyl]propionic acid]: the “Siegmund ED50” value in series [1] is on record as < 6 mg/kg. The “Trafuril ED50” value in series [2] is listed as 2.3 mg/kg. Moreover, the “Carrageenin-induced edema ED50” value in series [3] is recorded as 8 mg/kg.
